We go through two sequences from PMC9714824, “Hexapeptides from mammalian inhibitory hormone hunt activate and inactivate nematode reproduction” (PLOS ONE, 2022).

The subject of series [1] is human prostate cancer cell lines (LNCaP, PC3 and DU145). Description: 3H-thymidine incorporation, prostate cancer cells. In kind it is cell-based. To be noted: 0.06 or 6 μM, 24h then 48h pulse; in words (Fig 4). The procedure: For assays involving 14mer peptides only human prostate cancer cell lines (LNCaP, PC3 and DU145) were obtained from ATCC (American Tissue Type Culture Collection, Rockville, MD, USA). Cells were cultured in DMEM (Dulbecco’s […], Life Technologies, Grand Island, NY, USA) supplemented with 10% fetal calf serum (FCS, heat-inactivated), 100 IU/ml penicillin and 10 μg/ml streptomycin (all CSL, Parkville, Victoria, Australia) in 75 cm^2 culture flasks (Becton Dickinson, Franklin Lakes, NJ, USA) and were maintained at 37°C in a humidified incubator with […]. Incorporation of ^3H-thymidine was used to assess DNA synthesis. Cells were seeded overnight at 0.5 x 10^5 cells per well in 24-well tissue culture plates in DMEM culture medium (supplemented as above with 10% FCS, penicillin and streptomycin). Cell growth was synchronised by culturing cells in DMEM containing 0.1% bovine serum albumin (supplemented with penicillin and streptomycin, but without FCS) for 24h. […]
Fig 4 EPL001 and EPL030 effects on human prostate cancer cell growth in vitro. Cell proliferation was determined by ^3H-thymidine incorporation. […]
(In general: Dividing cells build labelled thymidine or BrdU into new DNA.)

Series [2] can be described thus: Toxicity study in immunodeficient nude mice. It is filed as in vivo, female Balb/c immunodeficient nude mice. To be noted: for Toxicity: in words; for Maximum weight loss compared to Day 0: groups of 2 mice. As for the experimental part:
For toxicity studies female Balb/c immunodeficient nude mice were used (B & K Universal, Hull, UK), aged 6–8 weeks old. They were housed in cages in isolation cabinets in an air-conditioned room with regular alternating cycles of light and darkness and received Teklad 2018 (Envigo) diet and water ad libitum. EPL001 and EPL030 in PBS at pH7.4 were administered to groups of 2 mice intraperitoneally (i.p.) daily on Days 0–4 at 500 mg/kg/dose and then 1000 mg/kg/dose. Following treatment, body weight was measured on a regular basis, and behaviour and general appearance monitored visually to assess for deleterious effects (e.g. dehydration, impaired mobility, hunched posture, low body temperature, ulceration and significant body weight loss), with any effects during the study recorded. […] If no deleterious effects were seen after at least 16 days of study, then the animals were sacrificed, with the dose considered non-toxic.
For toxicity studies female Balb/c immunodeficient nude mice were used (B & K Universal, Hull, UK), aged 6-8 weeks old. They were housed in cages in isolation cabinets in an air-conditioned room with regular alternating cycles of light and darkness and received Teklad 2018 (Envigo) diet and water ad libitum. EPL001 and EPL030 in PBS at pH7.4 were administered to groups of 2 mice intraperitoneally (i.p.) daily on days 0-4 at 500mg/kg/dose and then 1000mg/kg/dose. Following treatment, body weight was measured on a regular basis, and behaviour and general appearance monitored visually to assess for deleterious effects (e.g. dehydration, impaired mobility, hunched posture, low body temperature, ulceration and significant body weight loss), with any effects during the study recorded.

The subject of series [3] is MCF-7 human breast adenocarcinoma xenografts. Description: MCF-7 xenograft study with untreated control (second study). It is filed as in vivo, nude mice. To be noted: for Tumour growth delay compared to controls: in words; for Max % weight loss / Median RTV2 / Growth delay: second study; for Max % weight loss: 100mg/kg/day i.p.; for Median RTV2: 100mg/kg/day i.p. days 0-17, n=8; for Growth delay: vs untreated control. The procedure:
The MCF-7 human breast adenocarcinoma model was selected for xenograft studies. […] An oestrogen pellet was implanted subcutaneously in the dorsal area 24 hours prior to 2-3mm^3 fragments of MCF-7 tumour taken from donor tumours transplanted subcutaneously in the abdominal flanks of the efficacy study mice. Once tumour volumes reached approximately 32 mm^3 (as measured by calipers, designated treatment Day 0) mice were randomised into one of three groups (n = 8) as follows: EPL001 or EPL030 at 100 mg/kg/day administered i.p. on […], plus a peptide-untreated (PBS only) control group. Tumour volume, using calipers, and animal body weight were recorded throughout the experiment and normalised to the respective tumour volume on the initial day of treatment (Day 0). Mann-Whitney U tests were conducted to determine the statistical significance of any differences in growth rate (based on tumour volume doubling time) between control and treated groups.
(§1) The MCF-7 human breast adenocarcinoma model was selected for two xenograft studies. An oestrogen pellet was implanted subcutaneously in the dorsal area 24 hours prior to 2-3mm^3 fragments of MCF-7 tumour taken from donor tumours transplanted subcutaneously in the abdominal flanks of the efficacy study mice. Once tumour volumes reached approximately 32 mm^3 (as measured by calipers, designated treatment day 0) mice were randomised into treatment groups (n=8).
In the second study three groups were used as follows: EPL001 or EPL030 at 100mg/kg/day administered i.p. on days 0-17, plus an untreated control group.
(§2) Tumour volume, using calipers, and animal body weight were recorded throughout the experiment and normalised to the respective volume on the initial day of treatment (day 0). Mann-Whitney U tests were conducted to determine the statistical significance of any differences in growth rate (based on tumour volume doubling time) between control and treated groups.

For series [4] the test system is unchanged. Description: MCF-7 xenograft precursor study (first study). In kind it is in vivo, nude mice. To be noted: for Max % weight loss: 100mg/kg/day i.p.; for Median RTV2: 100mg/kg/day i.p. on 15 days between days 0 and 20, n=8. As for the experimental part:
as §1
In the first study four groups were used as follows: EPL001 or EPL030 at 100mg/kg/day administered i.p. on days 0, 1, 4, 5, 6, 7, 8, 11, 12, 13, 14, 15, 18, 19 and 20, plus a mouse anti-EPL001 monoclonal antibody or a control antibody directed at mouse haemocytes at 4mg/kg/day administered i.p. on days 0, 1, 2, 3, 4, 7, 8, 9, 10, 11, 14, 15, 16, 17 and 18 .
as §2

Setting [5] is: 500mg/kg/day ip Days 0 to 4, on Day 2.
The mark [6] stands for this setting: 1000mg/kg/day ip Days 0 to 4, EPL030 on Day 3, EPL001 on Day 1.

For the sequence “KLKMNGKNIEPVFT [EPL030, …, scrambled EPL001 control]”, the “Cell proliferation by 3H-thymidine incorporation” value in series [1] was “antiproliferative”. Further, the Toxicity result is listed as “No discernible toxicity” in series [2] (500mg/kg/day ip Days 0 to 4) and “no discernible signs of toxicity” in series [2] (1000mg/kg/day ip Days 0 to 4). The “Maximum weight loss compared to Day 0” value in series [2] (setting [5]) is 4.0%; in series [2] (setting [6]), 7.0%. Also, the “Tumour growth delay compared to controls” value in series [3] (100 mg/kg/day i.p., n = 8) is listed as “no statistically significant tumour growth delay”. For the same sequence, the “Tumour growth at termination compared with PBS-only controls” value in series [3] (100 mg/kg/day i.p., n = 8, ns) is −20.2%. Also, the results for the “Max % weight loss” value in series [3] and in series [4] were 2.4% and 1.2%, respectively. Besides, the “Median RTV2” value in series [3] is recorded as 3.6 days; in series [4], 7.3 days. In series [3], the “Growth delay” value is 0.1 days.
For “MKPLTGKVKEFNNI [EPL001, 14mer master test peptide …; ovine provenance]”, in series [1], the “Cell proliferation by 3H-thymidine incorporation” value is recorded as “antiproliferative”. For the same sequence, the Toxicity entry in series [2] (500mg/kg/day ip Days 0 to 4) is on record as “No discernible toxicity”; in series [2] (1000mg/kg/day ip Days 0 to 4), “no discernible signs of toxicity”. Also, the “Maximum weight loss compared to Day 0” value in series [2] (setting [5]) is 5.0%; in series [2] (setting [6]), 3.5%. In series [3] (100 mg/kg/day i.p., n = 8), the “Tumour growth delay compared to controls” value was “no statistically significant tumour growth delay”. Besides, the figures for the “Max % weight loss” value in series [3] and in series [4] were 0% and 3.6%, respectively. In addition, the “Median RTV2” value in series [3] amounted to 4.6 days; in series [4], 7.7 days. In addition, the “Growth delay” value in series [3] is given as 1.1 days; in series [4] (EPL001 versus EPL030), 0.4 days.
